# What was measured:
# [1] = target: cardiac potassium (hERG) channels (Homo sapiens, UniProt Q12809); experiment: hERG channel inhibition, Patchliner automated patch clamp; assay type: cell-based; conditions: 6-point curve, maximum 100 μM
# Description: (§1) (S)-1-((2-(trifluoromethyl)phenyl)sulfonyl)piperidine-3-carboxylic acid was tested for inhibition of cardiac potassium (hERG) channels using the Patchliner automated patch clamp. 6-Point concentration-response curves were generated using half-log serial dilutions from a maximum final test concentration of 100 μM. IC50 values were obtained from a 4-parameter logistic fit of the concentration-response data. […] Reference compound values were consistent with those presented in the literature (Elkins et al., 2013 J. Pharm. Tox. Meth. 68:11-122).
# hERG = hERG (Homo sapiens, UniProt Q12809); experiment: as above; assay type: cell-based; conditions: human; at 100 μM
# Description: as §1
# human Siiyama A1AT = target: T1, human Siiyama A1AT (Homo sapiens, UniProt P01009, S77F); experiment: A1AT cell secretion assay using HEK-Siiyama cells (ELISA); assay type: cell-based; conditions: 1 or 10 μM, 48 h
# T1 construct: expressed in transfected cells; host or cells: HEK-Siiyama cells (HEK-EBNA with Siiyama A1AT plasmid)
# Description: HEK-Siiyama cells, a human embryonic kidney cell line stably transfected with the Siiyama A1AT gene, were plated into 96 well plates (3.0×10^5 cells/ml with 200 μl of media/well) overnight at 37° C. in a humidified atmosphere containing 5% CO2. Following incubation cells were washed with 200 μl serum-free media three times and media was replaced with serum-free media containing vehicle, 10 μM suberanilohydroxamic acid (SAHA), (S)-1-((2-(trifluoromethyl)phenyl)sulfonyl)piperidine-3-carboxylic acid (at 1 or 10 μM) or (R)-1-((2-(trifluoromethyl)phenyl)sulfonyl)piperidine-3-carboxylic acid (at 1 or 10 μM) in replicates of eight for 48 h in a 37° C. incubator in a final volume of 200 μl. At the end of the incubation step the supernatants were removed from the wells, centrifuged at 1000×g at 4° C. for 10 min and were assayed for human A1AT levels by ELISA (Human Serpin A1/α1-antitrypsin duo set ELISA, R& D Systems, DY1268) per manufacturer's instructions.
# Briefly, a 96 well plate was coated with human A1AT capture antibody overnight at room temperature (1:180 dilution from stock, 100 μl final volume/well). The capture antibody was then removed and wells washed three times with 300 μl wash buffer (0.05% Tween 20 in PBS) and then 200 μl reagent diluent (25% Tween 20 in PBS) was incubated in each well for 1 h at room temperature. Diluted samples, standards (125, 250, 500, 1000, 2000, 4000 and 8000 pg/ml A1AT) or blanks were then added to each well in duplicate and the plates were covered with a plate sealer and left at room temperature for 2 h. […] After which, 50 μl stop solution (2M H2SO4) was added and optical density (OD) of each well was read at 450 nm with 570 nm blank subtracted from each well using a microplate reader. A 4 parameter logistic curve was constructed using GraphPad Prism 7 and A1AT concentrations were determined in each sample by interpolation from a standard curve and multiplying by the appropriate dilution factor.
# The amount of human A1AT secreted from transfected HEK-EBNA cells into the media was measured by ELISA. […]
# human Z A1AT = human Z A1AT (Homo sapiens, UniProt P01009, E366K); experiment: Circulating human Z A1AT levels in huZ mice; assay type: in vivo, mouse; design: from tissue; host or cells: huZ transgenic mice (line Z11.03, C57Bl/6); expressed in liver, measured in plasma; conditions: huZ mice, 5, 15 or 50 mg/kg twice a day by oral gavage for 14 days, plasma days 12-14
# Source text: The huZ mouse (also referred to as the PiZZ mouse) is a transgenic mouse strain that contains multiple copies of the Z variant of the human A1AT gene, developed by two separate groups (Dycaico et al (Science (1988) 242:1409-12) and Carlson et al (J. Clin Invest (1989) 83:1183-90)). HuZ mice are on a C57Bl/6 background and express the human Z A1AT protein in liver tissue. The mice used in this study are from the progeny of Carlson and colleagues (transgenic line Z11.03). […]
# HuZ mice (n=4/group: male or female) with basal human A1AT plasma levels of between 200-600 μg/ml were treated with either vehicle or (S)-1-((2-(trifluoromethyl)phenyl)sulfonyl)piperidine-3-carboxylic acid at 5, 15 or 50 mg/kg twice a day by oral gavage for 14 consecutive days. […] Human A1AT levels in mouse plasma samples were measured by ELISA (Human Serpin A1/α1 antitrypsin duo set ELISA, R& D Systems, DY1268) per manufacturer's instructions.
# Briefly, a 96 well plate was coated with human A1AT capture antibody overnight at room temperature (1:180 dilution from stock, 100 μl final volume/well). […] After which, 50 μl stop solution (2M H2SO4) was added and optical density (OD) of each well was read at 450 nm with 570 nm blank subtracted from each well using a microplate reader. […]
# T1 sequence (P01009 25-418 S77F): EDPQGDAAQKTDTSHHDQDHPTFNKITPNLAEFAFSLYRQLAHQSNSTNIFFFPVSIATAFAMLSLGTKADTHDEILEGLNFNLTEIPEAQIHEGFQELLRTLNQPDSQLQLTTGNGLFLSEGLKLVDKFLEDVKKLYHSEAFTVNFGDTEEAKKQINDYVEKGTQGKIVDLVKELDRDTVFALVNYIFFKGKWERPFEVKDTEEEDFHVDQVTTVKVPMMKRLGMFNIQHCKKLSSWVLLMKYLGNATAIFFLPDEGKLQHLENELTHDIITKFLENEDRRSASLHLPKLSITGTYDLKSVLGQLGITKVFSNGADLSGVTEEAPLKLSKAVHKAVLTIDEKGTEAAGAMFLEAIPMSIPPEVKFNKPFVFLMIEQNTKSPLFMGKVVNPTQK
# Chain of human Z A1AT (P01009 25-418 E366K): as the sequence (P01009 25-418 S77F) above, with F53S, E342K counted along it
# Chain of hERG (Q12809 whole entry): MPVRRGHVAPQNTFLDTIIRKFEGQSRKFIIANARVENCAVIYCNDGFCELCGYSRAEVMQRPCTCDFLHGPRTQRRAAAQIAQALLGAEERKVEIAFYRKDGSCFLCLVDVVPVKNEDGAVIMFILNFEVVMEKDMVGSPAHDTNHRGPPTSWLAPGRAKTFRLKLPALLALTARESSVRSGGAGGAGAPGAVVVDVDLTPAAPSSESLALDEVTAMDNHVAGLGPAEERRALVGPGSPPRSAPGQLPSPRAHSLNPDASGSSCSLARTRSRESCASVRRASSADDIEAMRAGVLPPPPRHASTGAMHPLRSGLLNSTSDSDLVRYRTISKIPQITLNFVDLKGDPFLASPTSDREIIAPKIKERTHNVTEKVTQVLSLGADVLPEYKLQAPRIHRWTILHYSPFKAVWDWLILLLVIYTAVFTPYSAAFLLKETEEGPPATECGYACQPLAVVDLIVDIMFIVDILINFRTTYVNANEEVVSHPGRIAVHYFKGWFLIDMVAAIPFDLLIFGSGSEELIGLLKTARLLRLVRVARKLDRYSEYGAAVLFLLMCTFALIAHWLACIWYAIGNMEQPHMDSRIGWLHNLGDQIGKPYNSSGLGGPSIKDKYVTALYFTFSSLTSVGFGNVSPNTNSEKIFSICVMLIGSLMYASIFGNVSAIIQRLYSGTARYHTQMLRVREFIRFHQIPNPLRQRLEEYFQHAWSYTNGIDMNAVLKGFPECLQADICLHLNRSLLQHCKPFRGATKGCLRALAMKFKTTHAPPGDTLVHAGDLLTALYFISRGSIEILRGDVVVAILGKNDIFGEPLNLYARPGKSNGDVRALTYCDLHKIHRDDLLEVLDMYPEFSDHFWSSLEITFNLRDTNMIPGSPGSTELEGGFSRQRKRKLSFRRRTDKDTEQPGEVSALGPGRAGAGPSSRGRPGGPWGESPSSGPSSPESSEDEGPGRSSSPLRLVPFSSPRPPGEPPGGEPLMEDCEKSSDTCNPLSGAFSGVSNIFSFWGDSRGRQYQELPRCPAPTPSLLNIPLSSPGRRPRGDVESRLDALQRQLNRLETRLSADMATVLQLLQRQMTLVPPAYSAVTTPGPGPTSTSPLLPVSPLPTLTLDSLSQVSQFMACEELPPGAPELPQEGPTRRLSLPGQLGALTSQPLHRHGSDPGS
# Chain of cardiac potassium (hERG) channels (Q12809 whole entry): as above
SMILES,IC50 [1] [µM],inhibition at 100 µM (hERG) [%],secretion of human Siiyama A1AT into cell supernatant (human Siiyama A1AT),circulating human Z A1AT compared to baseline levels (human Z A1AT)
O=C(O)[C@H]1CCCN(S(=O)(=O)c2ccccc2C(F)(F)F)C1 [(S)-1-((2-(Trifluoromethyl)phenyl)sulfonyl)piperidine-3-carboxylic acid],> 100,7,does not stimulate secretion of human Siiyama A1AT,stimulates secretion of human Z A1AT compared to baseline levels in huZ mice in a dose dependent manner
O=C(O)[C@@H]1CCCN(S(=O)(=O)c2ccccc2C(F)(F)F)C1 [(R)-1-((2-(Trifluoromethyl)phenyl)sulfonyl)piperidine-3-carboxylic acid],,,does not stimulate secretion of human Siiyama A1AT,
